Earlier results, collected in publication PMC10714399, “Open Source Antibiotics: Simple Diarylimidazoles Are Potent against Methicillin-Resistant Staphylococcus aureus” (ACS Infectious Diseases, 2023).

Columns and labels:
[1] = molecular target: transforming growth factor β1 (TGF-β1) type I receptor (ALK5); parameters: method as in earlier work; settings: read-out: IC50 against ALK5; cited from earlier work
[2] = tested on: p38 kinase; parameters: method as in earlier work; settings: cited from earlier work
[3] = tested on: TGF-β1-induced fibronectin mRNA formation; parameters: method as in earlier work; settings: cited from earlier work
[4] = parameters: method as in earlier work; settings: 48 h XTT assay; read-out: CC50, cytotoxicity; cited from earlier work

NC(=O)c1ccc(-c2nc(-c3ccc4c(c3)OCO4)c(-c3ccccn3)[nH]2)cc1 [SB-431542]
IC50 [1]: 94 nM | inhibition of p38 kinase [2]: no inhibition | IC50 [3]: 50 nM | CC50 [4]: > 30000 nM
